# PMC6273229, “Imidazopyranotacrines as Non-Hepatotoxic, Selective Acetylcholinesterase Inhibitors, and Antioxidant Agents for Alzheimer′s Disease Therapy” (Molecules, 2016)
# Where two headings read alike, the source gives them in different places.
# Tests used:
# [1] = target: T1, EeAChE (Electrophorus electricus, UniProt O42275); assay: Kinetic analysis of the inhibition of EeAChE (Lineweaver-Burk, Dixon, Cornish-Bowden plots); assay type: biochemical
# T1 construct: purchased Sigma type VI-S
# T1 sequence (O42275 24-633): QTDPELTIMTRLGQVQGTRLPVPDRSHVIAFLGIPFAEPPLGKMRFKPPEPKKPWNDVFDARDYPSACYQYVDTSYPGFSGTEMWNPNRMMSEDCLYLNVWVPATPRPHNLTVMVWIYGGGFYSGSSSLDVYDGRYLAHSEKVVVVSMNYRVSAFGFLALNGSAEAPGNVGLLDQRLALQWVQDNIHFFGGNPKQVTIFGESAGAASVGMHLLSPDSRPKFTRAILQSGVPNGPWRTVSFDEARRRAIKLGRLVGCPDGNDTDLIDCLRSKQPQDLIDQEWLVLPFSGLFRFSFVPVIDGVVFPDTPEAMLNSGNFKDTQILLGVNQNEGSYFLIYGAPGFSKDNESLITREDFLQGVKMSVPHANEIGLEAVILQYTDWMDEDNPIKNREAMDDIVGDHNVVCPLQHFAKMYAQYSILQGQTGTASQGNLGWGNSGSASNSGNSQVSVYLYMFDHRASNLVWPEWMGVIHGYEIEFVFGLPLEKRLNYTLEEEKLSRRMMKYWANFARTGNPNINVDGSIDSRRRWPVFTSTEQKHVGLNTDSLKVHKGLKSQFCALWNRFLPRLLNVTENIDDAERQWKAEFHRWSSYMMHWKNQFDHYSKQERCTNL
# Description: . […] The non-competitive mechanism of action was confirmed by building the Cornish-Bowden plot (Figure 3B). Replots of the substrate/velocity versus the concentration of compound 8 provided an estimate of the non-competitive inhibition constant, which resulted equal to 4.10 μM. The non-competitive mechanism of action was confirmed by computational chemistry by performing the docking analysis of both enantiomers of compound 8 on AChE (see Supplementary Materials).
# […]. Four concentrations of inhibitor were selected for this study: 0.850, 2.124, 3.399, 6.798 μM. The plots were assessed by a weighted least-squares analysis that assumed the variance of the velocity (v) to be a constant percentage of v for the entire data set. Data analysis was performed with GraphPad Prism 4.03 software (GraphPad Software Inc., San Diego, CA, USA). The determination of the non-competitive inhibition constant Ki value was carried out using Dixon plot, i.e., plotting the apparent 1/v vs. inhibitor concentration [I] [34] and confirmed by Cornish-Bowden plot ([substrate]/v vs. [I]).
# [2] = target: AChE from Electrophorus electricus (EeAChE) (Electrophorus electricus, UniProt O42275); assay: biochemical
# AChE from Electrophorus electricus (EeAChE), sequence (O42275 24-633): as above
# Description: The inhibitory activity on AChE from Electrophorus electricus (type VI-S, Sigma, Milan, Italy), was evaluated spectrophotometrically by the method of Ellman et al.. AChE stock solution was prepared by dissolving EeAChE lyophilized powder (Sigma) in 0.1 M phosphate buffer (pH = 8.0) containing 0.1% Triton X-100. Stock solutions of the tested compounds (1 mM) were prepared in MeOH/H2O 50/50 (v/v) and diluted in MeOH/H2O 50/50 (v/v). […] Assay solutions with and without inhibitor were preincubated at 37 °C for 20 min followed by the addition of substrate. Blank solutions containing all components except EeAChE were prepared in parallel to account for the non-enzymatic hydrolysis of the substrate. Initial rate assays were performed at 37 °C with a Jasco V-530 double beam spectrophotometer. […] The velocity in the presence and absence of inhibitor were compared and % inhibition was calculated. The results were plotted by placing the percentage of inhibition in function of the decimal log of the final inhibitor concentration. Linear regression and IC50 values were calculated using Microcal Origin 3.5 software (Microcal Software, […]).
# [3] = target: T2, BuChE from horse serum (eqBuChE) (Equus caballus, UniProt P81908); assay: biochemical; conditions: mean ± SEM
# T2 construct: BuChE from horse serum (lyophilized powder, Sigma-Aldrich); purchased Sigma-Aldrich; host or cells: horse serum
# T2 sequence (P81908 whole entry): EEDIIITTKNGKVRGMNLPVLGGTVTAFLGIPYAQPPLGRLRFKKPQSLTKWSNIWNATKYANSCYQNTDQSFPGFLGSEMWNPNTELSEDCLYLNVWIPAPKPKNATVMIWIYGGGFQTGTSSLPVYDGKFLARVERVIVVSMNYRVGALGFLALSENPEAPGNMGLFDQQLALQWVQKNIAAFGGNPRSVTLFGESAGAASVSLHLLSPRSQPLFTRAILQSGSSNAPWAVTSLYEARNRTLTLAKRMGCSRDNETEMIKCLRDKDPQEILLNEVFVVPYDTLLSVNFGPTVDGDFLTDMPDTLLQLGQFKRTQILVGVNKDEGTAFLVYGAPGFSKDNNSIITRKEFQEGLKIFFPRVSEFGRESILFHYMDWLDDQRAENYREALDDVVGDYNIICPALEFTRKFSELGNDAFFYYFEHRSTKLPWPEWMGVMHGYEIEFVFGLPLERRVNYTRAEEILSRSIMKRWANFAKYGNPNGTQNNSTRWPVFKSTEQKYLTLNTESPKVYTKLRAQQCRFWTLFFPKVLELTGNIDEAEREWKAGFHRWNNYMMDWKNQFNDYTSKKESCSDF
# Description: The % inhibitory activity on BuChE from horse serum (lyophilized powder, Sigma-Aldrich), was evaluated spectrophotometrically by the method of Ellman et al.. BuChE stock solutions were first dissolved in 0.1 M phosphate buffer (pH 8.0) and then aliquoted in small vials. Compounds were dissolved in DMSO at 10 mM. The reaction was carried out in a final volume of 3 mL of a 0.1 M phosphate-buffered solution at pH 8.0, containing 5,5′-dithiobis-2-nitrobenzoic acid (DTNB, 2625 µL, 0.35 mM, final concentration), eqBuChE (60 µL, 0.05 U/mL final concentration), tested compound (3 µL, 10 µM, final concentration) and 1% w/v Bovine Serum Albumin phosphate-buffered (pH 8.0) solution (BSA, 40 µL). The inhibition with respect to control without compound was determined by pre-incubating this mixture at rt with each compound for 10 min. After this period, butyrylthiocholine iodide (150 µL, 0.5 mM final concentration) was added and incubated for 15 min at rt.
# [4] = test system: HepG2 cells; assay type: cell-based; conditions: for Cell viability (MTT reduction, % control): 24 h, mean ± S.E.M.; for hepatotoxicity on HepG2 cells (in words): cell viability assay, 1–1000 µM
# Description: The human hepatoma HepG2 line cells were purchased from American Type Culture Collection. The cells were cultured in Eagle’s Minimum Essential Medium (Ozyme, Montigny-le-Bretonneux, France) supplemented with 10% fetal bovine serum, 1X non-essential amino acids, 100 units/mL penicillin and […] streptomycin (Dutscher, Brumath, France). […] Prior to the experiment, cells were seeded in 96-well culture plates at a density of 0.1 × 10^6 cells per well. After 24 h of incubation, the culture medium was refreshed and 100 µL of the test compounds or DMSO (0.1%) were added. Compounds were tested at 7 concentrations (1–1000 µM) in triplicate.
# Cell viability, measured as the mitochondrial activity of living cells, was determined by quantitative colorimetric assay with 3-[4,5 dimethylthiazol-2-yl]-2,5-diphenyl-tetrazolium bromide (MTT). Briefly, after 24 h of treatment, cells were incubated with 50 µL MTT (0.5 mg/mL, Sigma Aldrich) at 37 °C for 2 h. Plates were centrifuged, MTT was removed and 100 µL DMSO was distributed per well. The absorbance was read at 570 nm by microplate spectrophotometry. Cell viability was expressed as percentage over controls (DMSO, 0.1%).
# [5] = Oxygen radical absorbance capacity by fluorescence (ORAC-FL); conditions: Trolox equivalents, mean ± SD
# Description: The antioxidant power of the imidazopyranotacrines 1–13 was determined by the oxygen radical absorbance capacity by fluorescence (ORAC-FL) method using fluorescein as fluorescent probe and Trolox (6-hydroxy-2,5,7,8-tetramethylchroman-2-carboxylic acid) as a reference compound. Results are expressed as Trolox equivalents (μmol Trolox per μmol test compound).
# The radical scavenging activity of imidazopyranotacrines 1–13 was determined by the ORAC-FL method using a Varioskan Flash plate reader with built-in injectors (Thermo Scientific). Trolox, 2,2′-azobis(amidinopropane) dihydrochloride (AAPH) and fluorescein (FL) were purchased from Sigma-Aldrich. The reaction was performed at 37 °C in 75 mM phosphate buffer (pH = 7.4), and the final volume reaction mixture was 200 µL. The final concentrations were 1–8 µM for Trolox and 0.1–1 µM for the tested compounds. Briefly, in a black 96-well microplate (Nunc), antioxidant (20 µL) and fluorescein (120 µL) were incubated for 15 min at 37 °C. Then, 2,2′-azobis(amidinopropane) dihydrochloride (60 µL) was added using the built-in injector. […] All assays were made in triplicate and at least three different assays were performed for each sample.
# The net AUC corresponding to a sample was calculated as follows: Net AUC = AUCantioxidant − AUCblank(2)
# Regression equations were calculated by plotting the net AUC against the antioxidant concentration. The ORAC value was obtained by dividing the slope of the latter curve by the slope of the Trolox curve obtained in the same assay. ORAC values was expressed as µmol of Trolox equivalent/µmol of imidazopyranotacrines. Data are expressed as mean ± SD.
# [6] = ORAC-FL, Trolox equivalents, cited from earlier work
SMILES,"mechanism of inhibition of EeAChE ([1]; Km unaltered, Vmax decreased)","Ki ([1]; substrate acetylthiocholine, estimate from Cornish-Bowden plot, read-out: non-competitive inhibition constant (Ki)) [µM]",IC50 [2] [µM],inhibition at 10 µM [3] [%],"Cell viability (MTT reduction, % control) ([4]; HepG2, 1 µM) [% control]","Cell viability (MTT reduction, % control) ([4]; HepG2, 3 µM) [% control]","Cell viability (MTT reduction, % control) ([4]; HepG2, 10 µM) [% control]","Cell viability (MTT reduction, % control) ([4]; HepG2, 30 µM) [% control]","Cell viability (MTT reduction, % control) ([4]; HepG2, 100 µM) [% control]","Cell viability (MTT reduction, % control) ([4]; HepG2, 300 µM) [% control]","Cell viability (MTT reduction, % control) ([4]; HepG2, 1000 µM) [% control]",hepatotoxicity on HepG2 cells (in words) [4],ORAC [5] [µmol Trolox/µmol compound],ORAC [6],ORAC ([6]; listed as tacrine) [µmol Trolox/µmol compound]
"Cn1ccnc1C1c2c(nc3c(c2N)CCCC3)Oc2ccc3ccccc3c21 (centres unmarked) [Compound 8, 14-(1-Methyl-1H-imidazol-2-yl)-9,11,12,14-tetrahydro-10H-benzo[5,6]chromeno[2,3-b]quinolin-13-amine]",non-competitive,4.1,6.73 ± 0.52,51.6 ± 0.6,108.1 ± 5.4,101.3 ± 10.8,79.0 ± 9.1,57.6 ± 4.2,52.7 ± 3.3,51.2 ± 2.8,66.2 ± 6.8,more toxic than tacrine,1.88 ± 0.01,–,–
Nc1c2c(nc3ccccc13)CCCC2 [Tacrine],–,–,–,–,95.8 ± 2.2,100.4 ± 2.2,96.9 ± 3.9,97.7 ± 3.9,98.6 ± 3.8,39.2 ± 4.7,20.0 ± 2.1,safe up to 100 µM,–,0.20 ± 0.04 [28] µmol Trolox/µmol compound,0.20 ± 0.04
